# Source: patent publication US11433013B2, “Peptide for preventing skin damage caused by air pollutants and for anti-aging, and use thereof” (CAREGEN CO., LTD., priority 2019, dated 2022)
# No end group written: not given here.
# Test system: CYP1A1
# Assay: CYP1A1 gene expression by RT-PCR, HaCaT cells treated with pollutants
# Format: cell-based, human
# Method: In order to confirm an effect of inhibiting inflow of pollutants into the cells via another method, the cells were treated with TCDD, PM, and CSE, and expression levels of CYP1A1 and COX-2 were confirmed. When the activity of AhR is promoted by the pollutants such as TCDD, the AhR acts as a transcription factor and increases expressions of CYP1A1 and COX-2, and thus a degree of the inflow of the pollutants into the cells and whether the AhR is activated or not may be confirmed by measuring expression levels of CYP1A1 and COX-2 genes. TCDD, PM, and CSE were each used after mixing it with the peptide of the present invention and pre-reacting the mixture on a serum-free media for about 1 hour.
# In order to confirm the results of the cells treated with TCDD, first, 78 passages of HaCaT cells were seeded in a 6-well plate at a cell density of 3×10^5/well and cultured for about 16 hours, and then, the culture solution was replaced with a serum-free media, and the resultant was treated with the pre-reacted mixture of TCDD and the peptide for about 2 hours. The treatment included TCDD at a concentration of about 0.1 μM and the peptide at concentrations of about 10 μM, about 50 μM, and about 100 μM, respectively. The negative control was not treated with the peptide but only treated with TCDD, and the positive control was treated with CH223191 at a concentration of about 10 μM and TCDD. The cells were reacted with the mixture for about 2 hours, and RNA was isolated from the resultant. After removing the culture solution, the plate on which the cells were cultured was treated with TRIzol (available from Thermo Fisher Scientific, USA), and a sample including RNA was obtained using a scraper. Then, the sample was treated with chloroform and centrifuged to obtain a supernatant. The supernatant was treated with isopropanol, centrifuged again, and RNA pellets at the bottom were confirmed. Next, the resultant was treated with 70% of ethanol to wash the pellets, and the pellets were sufficiently dried to isolate RNA. […]
sequence,measurement,setting,value
"SYSGVLFFLK [SEQ ID NO: 1, SYSGVLFFLK]",expression level of CYP1A1,"CSE about 2%, peptide about 10, 50, 100 μM, about 2 hours (FIG. 2C)",decreased as a concentration of the peptide increased
same,expression level of CYP1A1,"PM about 25 μg/cm^2, peptide about 10, 50, 100 μM, about 2 hours (FIG. 2B)",decreased as a concentration of the peptide increased
same,expression level of CYP1A1,"TCDD about 0.1 μM, peptide about 10, 50, 100 μM, about 2 hours (FIG. 2A)",decreased as a concentration of the peptide increased
